Counter-ions that a name gives are not always drawn.
Experiments:
[1] = target: T1, Recombinant human IKKβ (residues 1-737) (Homo sapiens, UniProt O14920); assay: IKK2 assay (TR-FRET); format: biochemical; settings: ATP 1 μM final, read-out: pIC50 against IKK2 (converted)
T1 construct: Recombinant human IKKβ (residues 1-737); GST (C); made in house
T1 sequence (O14920 1-737): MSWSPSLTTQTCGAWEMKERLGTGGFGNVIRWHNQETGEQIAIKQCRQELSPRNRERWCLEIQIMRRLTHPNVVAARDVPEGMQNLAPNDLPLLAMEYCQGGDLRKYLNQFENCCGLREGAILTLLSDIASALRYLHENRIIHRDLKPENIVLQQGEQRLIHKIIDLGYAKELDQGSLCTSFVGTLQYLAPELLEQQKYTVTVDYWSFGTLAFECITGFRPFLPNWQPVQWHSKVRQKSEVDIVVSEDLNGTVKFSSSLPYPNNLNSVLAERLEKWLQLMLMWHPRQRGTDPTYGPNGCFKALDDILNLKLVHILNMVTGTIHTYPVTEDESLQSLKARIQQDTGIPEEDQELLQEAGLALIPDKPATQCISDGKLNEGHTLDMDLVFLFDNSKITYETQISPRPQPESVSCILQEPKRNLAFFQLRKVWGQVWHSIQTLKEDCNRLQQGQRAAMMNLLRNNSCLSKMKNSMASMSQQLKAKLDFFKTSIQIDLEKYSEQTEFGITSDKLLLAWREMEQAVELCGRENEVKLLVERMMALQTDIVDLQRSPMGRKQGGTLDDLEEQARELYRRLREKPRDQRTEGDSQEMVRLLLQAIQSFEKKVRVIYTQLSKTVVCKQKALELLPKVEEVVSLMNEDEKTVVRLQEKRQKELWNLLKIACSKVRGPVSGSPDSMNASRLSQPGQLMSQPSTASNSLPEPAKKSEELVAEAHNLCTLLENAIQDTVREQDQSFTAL
Summary of the method: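 Baculovirus-expressed C-terminal GST-tagged IKKβ (0.5-5 nM final) in HEPES pH 7.4, MgCl2, CHAPS, DTT, BSA with 1.7% DMSO; 25 nM GST-IB substrate and 1 μM ATP, 15 min at room temperature. EDTA stop; phospho-Ser32/36 detected by Eu-antibody/APC-anti-GST TR-FRET, 665/620 nm ratio.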

[2] = tested on: human monocyte stimulated cytokine production (TNF-α); assay: Monocyte assay (LPS-stimulated TNF-α production); format: cell-based; settings: 24 h, 200 ng/mL LPS, TNF-α by ELISA
Protocol: Effect of IKK-β inhibition on human monocyte stimulated cytokine production was assessed as follows: Monocytes were isolated from heparinized whole blood by Ficoll gradient, followed by purification of CD14+ cells using MACS magnetic cell separation beads. Isolated monocytes were then adhered to 96-well culture plates at 1×10^6 cells/mL in RPMI 1640 10% FBS (JRH Biosciences, Lenexa Kans.) for 2 h. Test compounds are added to the wells 30 minutes prior to stimulation with a final vehicle concentration of 0.1% DMSO. Monocytes were activated by the addition of 200 ng/mL endotoxin (LPS; E. coli serotype 026:B6)(Sigma, St. Louis, Mo.) and incubated for 24 hrs at 37 C. Cell-free supernates were analyzed by ELISA for TNF-α using Pharmingen matched pair Abs. Viability of the cells was determined by 10% trypan blue exclusion.

IC50 [1] | IC50 [2] | SMILES
≤ 10000 nM | ≤ 1500 nM | CCS(=O)(=O)N1CCC(c2c[nH]c3c(C(N)=O)cc(-c4cccc(CN5CCCCC5)c4)cc23)CC1 [Example 1, 3-[1-(ethylsulfonyl)-4-piperidinyl]-5-[3-(1-piperidinylmethyl)phenyl]-1H-indole-7-carboxamide]
≤ 10000 nM | ≤ 1500 nM | CCS(=O)(=O)N1CCC(c2c[nH]c3c(C(N)=O)cc(-c4cccc(CN5CCNCC5)c4)cc23)CC1 [Example 2, 3-[1-(ethylsulfonyl)-4-piperidinyl]-5-[3-(1-piperazinylmethyl)phenyl]-1H-indole-7-carboxamide]
≤ 10000 nM | ≤ 1500 nM | CCS(=O)(=O)N1CCC(c2c[nH]c3c(C(N)=O)cc(-c4cccc(CN5CCOCC5)c4)cc23)CC1 [Example 3, 3-[1-(ethylsulfonyl)-4-piperidinyl]-5-[3-(4-morpholinylmethyl)phenyl]-1H-indole-7-carboxamide]
≤ 10000 nM | > 1000 nM | CCS(=O)(=O)N1CCC(c2c[nH]c3c(C(N)=O)cc(-c4cccc(CN(C)CCS(C)(=O)=O)c4)cc23)CC1 [Example 4, 3-[1-(ethylsulfonyl)-4-piperidinyl]-5-[3-({methyl[2-(methylsulfonyl)ethyl]amino}methyl)phenyl]-1H-indole-7-carboxamide]
≤ 10000 nM | ≤ 1500 nM | CCS(=O)(=O)N1CCC(c2c[nH]c3c(C(N)=O)cc(-c4cccc(CN(C)CCN(C)C)c4)cc23)CC1 [Example 5, 5-(3-{[[2-(dimethylamino)ethyl](methyl)amino]methyl}phenyl)-3-[1-(ethylsulfonyl)-4-piperidinyl]-1H-indole-7-carboxamide]
≤ 10000 nM | ≤ 1500 nM | CCS(=O)(=O)N1CCC(c2c[nH]c3c(C(N)=O)cc(-c4cccc(CN5CCN(CCOCCO)CC5)c4)cc23)CC1 [Example 6, 3-[1-(ethylsulfonyl)-4-piperidinyl]-5-{3-[(4-{2-[(2-hydroxyethyl)oxy]ethyl}-1-Piperazinyl)methyl]phenyl}-1H-indole-7-carboxamide]
≤ 10000 nM | ≤ 1500 nM | CCS(=O)(=O)N1CCC(c2c[nH]c3c(C(N)=O)cc(-c4cccc(CN5CCCC(CO)C5)c4)cc23)CC1 (stereo not shown) [Example 7, 3-[1-(ethylsulfonyl)-4-piperidinyl]-5-(3-{[3-(hydroxymethyl)-1-piperidinyl]methyl}phenyl)-1H-indole-7-carboxamide]
≤ 10000 nM | ≤ 1500 nM | CCS(=O)(=O)N1CCC(c2c[nH]c3c(C(N)=O)cc(-c4cccc(CN(CCOC)CCOC)c4)cc23)CC1 [Example 8, 5-[3-({bis[2-(methyloxy)ethyl]amino}methyl)phenyl]-3-[1-(ethylsulfonyl)-4-piperidinyl]-1H-indole-7-carboxamide]
≤ 10000 nM | ≤ 1500 nM | CCS(=O)(=O)N1CCC(c2c[nH]c3c(C(N)=O)cc(-c4cccc(CN5CC(C)OC(C)C5)c4)cc23)CC1 (stereo not shown) [Example 9, 5-{3-[(2,6-dimethyl-4-morpholinyl)methyl]phenyl}-3-[1-(ethylsulfonyl)-4-piperidinyl]-1H-indole-7-carboxamide]
≤ 10000 nM | ≤ 1500 nM | CCS(=O)(=O)N1CCC(c2c[nH]c3c(C(N)=O)cc(-c4cccc(CN5CCCC5c5nccs5)c4)cc23)CC1 (stereo not shown) [Example 10, 3-[1-(ethylsulfonyl)-4-piperidinyl]-5-(3-{[2-(1,3-thiazol-2-yl)-1-pyrrolidinyl]methyl}phenyl)-1H-indole-7-carboxamide]
≤ 10000 nM | ≤ 1500 nM | CCS(=O)(=O)N1CCC(c2c[nH]c3c(C(N)=O)cc(-c4cccc(CN5CCCC5c5cccs5)c4)cc23)CC1 (stereo not shown) [Example 11, 3-[1-(ethylsulfonyl)-4-piperidinyl]-5-(3-{[2-(2-thienyl)-1-pyrrolidinyl]methyl}phenyl)-1H-indole-7-carboxamide]
≤ 10000 nM | ≤ 1500 nM | CCS(=O)(=O)N1CCC(c2c[nH]c3c(C(N)=O)cc(-c4cccc(CN(C)CC(O)c5ccccc5)c4)cc23)CC1 (stereo not shown) [Example 12, 3-[1-(ethylsulfonyl)-4-piperidinyl]-5-(3-{[(2-hydroxy-2-phenylethyl)-(methyl)amino]methyl}phenyl)-1H-indole-7-carboxamide]
≤ 10000 nM | ≤ 1500 nM | CCN(C)Cc1cccc(-c2cc(C(N)=O)c3[nH]cc(C4CCN(S(=O)(=O)CC)CC4)c3c2)c1 [Example 13, 5-(3-{[ethyl(methyl)amino]methyl}phenyl)-3-[1-(ethylsulfonyl)-4-piperidinyl]-1H-indole-7-carboxamide]
≤ 10000 nM | > 1000 nM | CCS(=O)(=O)N1CCC(c2c[nH]c3c(C(N)=O)cc(-c4cccc(CNC5CCCC5)c4)cc23)CC1 [Example 15, 5-{3-[(cyclopentylamino)methyl]phenyl}-3-[1-(ethylsulfonyl)-4-piperidinyl]-1H-indole-7-carboxamide]
≤ 10000 nM | ≤ 1500 nM | CCS(=O)(=O)N1CCC(c2c[nH]c3c(C(N)=O)cc(-c4cccc(CNCc5ccc(O)c(O)c5)c4)cc23)CC1 [Example 16, 5-[3-({[(3,4-dihydroxyphenyl)methyl]amino}methyl)phenyl]-3-[1-(ethylsulfonyl)-4-piperidinyl]-1H-indole-7-carboxamide]
≤ 10000 nM | ≤ 1500 nM | CCS(=O)(=O)N1CCC(c2c[nH]c3c(C(N)=O)cc(-c4cccc(CNCc5ccsc5)c4)cc23)CC1 [Example 17, 3-[1-(ethylsulfonyl)-4-piperidinyl]-5-(3-{[(3-thienylmethyl)amino]methyl}phenyl)-1H-indole-7-carboxamide]
≤ 10000 nM | ≤ 1500 nM | CCS(=O)(=O)N1CCC(c2c[nH]c3c(C(N)=O)cc(-c4cccc(CN[C@@H](CO)C(C)C)c4)cc23)CC1 [Example 18, 3-[1-(ethylsulfonyl)-4-piperidinyl]-5-[3-({[(1R)-1-(hydroxymethyl)-2-methylpropyl]amino}methyl)phenyl]-1H-indole-7-carboxamide]
≤ 10000 nM | ≤ 1500 nM | CCS(=O)(=O)N1CCC(c2c[nH]c3c(C(N)=O)cc(-c4cccc(CNC(C)CO)c4)cc23)CC1 (stereo not shown) [Example 19, 3-[1-(ethylsulfonyl)-4-piperidinyl]-5-(3-{[(2-hydroxy-1-methylethyl)amino]methyl}phenyl)-1H-indole-7-carboxamide]
≤ 10000 nM | ≤ 1500 nM | CCS(=O)(=O)N1CCC(c2c[nH]c3c(C(N)=O)cc(-c4cccc(CN[C@H]5CC[C@H](O)CC5)c4)cc23)CC1 [Example 20, 3-[1-(ethylsulfonyl)-4-piperidinyl]-5-(3-{[(trans-4-hydroxycyclohexyl)amino]methyl}phenyl)-1H-indole-7-carboxamide]
– | ≤ 1500 nM | CCS(=O)(=O)N1CCC(c2c[nH]c3c(C(N)=O)cc(-c4ccc(CNCC(C)C)s4)cc23)CC1 [Example 243, 3-[1-(ethylsulfonyl)-4-piperidinyl]-5-(5-{[(2-methylpropyl)amino]methyl}-2-thienyl)-1H-indole-7-carboxamide trifluoroacetate]
– | ≤ 1500 nM | CCOCCN(C)Cc1cc(-c2cc(C(N)=O)c3[nH]cc(C4CCN(S(=O)(=O)CC)CC4)c3c2)cs1 [Example 403, 5-(5-{[[2-(ethyloxy)ethyl](methyl)amino]methyl}-3-thienyl)-3-[1-(ethylsulfonyl)-4-piperidinyl]-1H-indole-7-carboxamide]

— patent US8063071B2 (GlaxoSmithKline, LLC, priority 2007, dated 2011)
